Where two headings read alike, the source gives them in different places.
Legend:
allergic sheep [1] = settings: for inhibition of ABR: FIG. 6
Experimental: Five allergic sheep, with previously documented acute bronchoconstrictor response to Ascaris suum antigen, were used for all studies. The sheep were intubated with a cuffed nasotracheal tube and pulmonary airflow resistance (RL) was measured by the esophageal balloon catheter technique, while thoracic gas volume was measured by body plethysmography. Data was expressed as specific resistance, SRL. SRL is defined as RL times thoracic gas volume (Vtg).
The normal reaction of the sheep to the antigen from Ascaris suum is measured. After full recovery and a two week rest period, the sheep again undergo repeat antigen challenge, but this time only after treatment with D-propranolol.
The SRL of the acute responder sheep was measured prior to any treatment (baseline). The normal response of the sheep to antigen challenge by Ascaris suum antigen was measured (Open circles). […] One hour after D-propranolol was administered, the sheep were challenged with Ascaris suum antigen by inhalation. The SRL was measured immediately after antigen challenge (AG0).
Specific lung resistance (SRL) was measured in 11 allergic sheep, of which six sheep were acute responders and five sheep were dual responders, before and serially after challenge with Ascaris suum antigen, without and after pretreatment with D- or L-propranolol. The propranolol was administered either in an inhaled dose or an oral dose.

allergic sheep [2] = experiment: Antigen-induced bronchoconstriction (early and late phase SRL), dual responder sheep; type: in vivo; settings: dual responders
From the text: Data was expressed as specific resistance, SRL.

allergic sheep [3] = experiment: Antigen-induced airway hyperresponsiveness (AHR), PD400 of carbachol, dual responder sheep; type: in vivo; settings: dual responders
Experimental: (§1) To assess the normal or baseline airway responsiveness of the sheep, cumulative dose response curves to inhaled carbochol were performed. The SRL of each sheep was measured before and after inhalation of a buffered saline solution and after each administration of 10 breaths of increasing concentrations of carbachol (0.25, 0.5, 1.0, 2.0 and 4.0% wt/vol solution). Airway responsiveness was defined by determination of the cumulative provocation dose (PD400) of carbachol (in breath units) that increased SRL to 400% above baseline. One breath unit was defined as one breath of 1% carbachol solution.
(§2) The following experiments used inhaled D- or L-propranolol. AHR was estimated at 2 hours (acute) or 24 hours (dual) after antigen challenge as the provocating dose of carbachol which increased SRL by 400% (PD400). In acute responders, SRL increased by 219% with antigen challenge and PD400 decreased by 55%. Inhaled D-propranolol had no effect on baseline SRL, but inhibited ABR in a dose dependent manner.

allergic sheep [4] = experiment: Antigen-induced airway hyperresponsiveness (AHR), PD400 of carbachol, acute responder sheep; type: in vivo; settings: acute responders; for inhibition of AHR (PD400): 2 hours after antigen, FIG. 7
Experimental: as §1, §2

[5] = inhaled, FIG. 18 (legend: 10 mg/kg)

For `CC(C)NC[C@H](O)COc1cccc2ccccc12` [L-propranolol, reference compound], the “change in SRL after antigen challenge” value (allergic sheep [1]; acute responders, inhaled, 10 mg dose, FIG. 8) was 209%, the “effect on antigen-induced responses” value (allergic sheep [2]; [5]) was “ineffective” and the “peak early change in SRL” value (allergic sheep [2]; [5]) was 351%. The “peak late SRL” value (allergic sheep [2]; [5]) was 175%, the “effect on PD400” value (allergic sheep [3]; inhaled, 24 hours after antigen, FIG. 19 (legend: 10 mg/kg)) was “had no effect” and the “AHR response (PD400)” value (allergic sheep [4]; inhaled, 10 mg dose, FIG. 9) was “no difference between the post antigen and L-propranolol responses”.
For `CC(C)NC[C@@H](O)COc1cccc2ccccc12` [D-propranolol], the “allergic bronchoconstriction after antigen challenge” value (allergic sheep [1]; Example I, acute responders (n=5), aerosol 10 mg in 4 mL PBS one hour before antigen, FIG. 1) was “significant inhibition of allergic bronchoconstriction”, the “percentage change in SRL after antigen stimulation vs control” value (allergic sheep [1]; Example I, acute responders (n=5), aerosol 10 mg in 4 mL PBS, P<0.05, FIG. 2) was “significantly less change in SRL” and the “inhibition of ABR” value (allergic sheep [1]; acute responders, inhaled, 5 mg dose) was 37%. For the same compound, the “inhibition of ABR” value (allergic sheep [1]; acute responders, inhaled, 10 mg dose, P<0.05) was 68%, the “inhibition of ABR” value (allergic sheep [1]; acute responders, inhaled, 20 mg dose) was 44% and the “effect on ABR (change in SRL)” value (allergic sheep [1]; acute responders, oral, 5 mg/kg, FIG. 10) was “effects ABR”. For the same compound, the “effect on baseline SRL” value (allergic sheep [1]; in vivo) was “had no effect”, the “attenuation of early phase” value (allergic sheep [2]; inhaled, 5 mg dose, FIG. 12) was 35% and the “attenuation of late phase” value (allergic sheep [2]; inhaled, 5 mg dose, FIG. 12) was 21%. The “effect on ABR” value (allergic sheep [2]; inhaled, 10 mg dose, FIG. 14) was “effected ABR”, the “effect on early phase” value (allergic sheep [2]; oral, 5 mg/kg, FIG. 16) was “significantly effected the early phase” and the “effect on late phase response” value (allergic sheep [2]; oral, 5 mg/kg, FIG. 16) was “may even remove the late phase response”. For the same compound, the “inhibition of AHR (PD400)” value (allergic sheep [3]; inhaled, 5 mg dose, 24 hours after antigen, P<0.05, FIG. 13) was 44%, the “effect on AHR” value (allergic sheep [3]; inhaled, 10 mg dose, FIG. 15) was “effected” and the “effect on AHR” value (allergic sheep [3]; oral, 5 mg/kg, FIG. 17) was “effected AHR”. The “airway responsiveness (PD400) after antigen” value (allergic sheep [4]; Example I, inhaled 10 mg in 4 mL PBS, P=NS, FIG. 4) was “maintained the airway responsiveness levels at the baseline”, the “inhibition of AHR (PD400)” value (allergic sheep [4]; inhaled, 5 mg dose) was 30% and the “inhibition of AHR (PD400)” value (allergic sheep [4]; inhaled, 10 mg dose) was 50%. The “inhibition of AHR (PD400)” value (allergic sheep [4]; inhaled, 20 mg dose, P<0.05 vs post-antigen) was 75% and the “effect on AHR (change in PD400)” value (allergic sheep [4]; oral, 5 mg/kg, FIG. 11) was “effects”.
